Test results from US20060216791A1, “Method for synthesizing amino-acid-selectively labeled protein” (Mitsubishi Chemical Corporation, priority 2003, published 2006).

Key:
Type in all cases: biochemical
[1] = system: glutamine synthetase; assay: Metabolism of glutamic acid to glutamine in wheat germ cell-free system, 1H-15N HSQC of synthesized yeast ubiquitin
Description: (§1) The mixed solution was allowed to react for 2 days with a dialysis buffer solution, wherein only one type of amino acid had been labeled with ^15N (manufactured by Cambridge Isotope Laboratories) and 19 types of remaining amino acids were ordinary amino acids. Thereafter, the dialysis buffer solution was exchanged with a fresh buffer solution, and the protein synthesis reaction was carried out further for 2 days. Thereafter, 1 ml of the reaction solution was concentrated to 250 μl using a Centricon-3 ultrafiltration concentration device manufactured by Millipore. […] The concentrated solution was passed through a Micro Spin G-25 gel filtration column manufactured by Amersham that had previously been equilibrated with a buffer solution used for NMR measurement (50 mM sodium phosphate, pH 6.5, 100 mM NaCl), so that the buffer solution was exchanged with a buffer solution used for the measurement, thereby preparing an NMR measurement sample.
(§2) For the NMR measurement, an Avance-500 spectrometer manufactured by Bruker was used. In order to maintain the stability of a magnetic field, 10% D2O used for NMR lock was added to the measurement sample, and thereafter, ^1H-^15N HSQC measurement was carried out. The measurement temperature was set at 30° C.
(§3) Subsequently, the concentration of aminooxyacetic acid in a translation solution and an external dialysis solution was set at 1 mM. The following 3 types of substrate amino acids were prepared: (1) only alanine was labeled with ^15N and 19 types of remaining amino acids were ordinary amino acids; (2) only aspartic acid was labeled with ^15N and 19 types of remaining amino acids were ordinary amino acids; and (3) only glutamic acid was labeled with ^15N and 19 types of remaining amino acids were ordinary amino acids. Using these substrate amino acids, yeast ubiquitins were synthesized by the same method as described in Example 1, and the ^1H-^15N HSQC was measured. […] Moreover, the aforementioned experiment was carried out under conditions whereby the concentration of aminooxyacetic acid was set at 0.1 μM, 1 μM, 10 μM, 100 μM, and 1 mM.
(§4) Subsequently, the concentration of aminooxyacetic acid was set at 1 mM and the concentration of L-methionine sulfoximine was set at 0.1 mM in a translation solution and an external dialysis solution. Substrate amino acid was prepared such that only glutamic acid was labeled with ^15N and 19 types of remaining amino acids were ordinary amino acids. Using such substrate amino acid, yeast ubiquitin was synthesized by the same method as described in examples, and the ^1H-^15N HSQC was measured. […] Moreover, the aforementioned experiment was carried out under conditions whereby the concentration of L-methionine sulfoximine was set at 0.1 μM, 1 μM, 10 μM, and 100 μM.

[2] = system: cell-free protein synthetic system containing a wheat germ extract; assay: Amount of GFP synthesized by wheat germ cell-free protein synthesis (GFP fluorescence intensity)
[3] = system: transaminase; assay: Amino acid metabolism by transaminase in wheat germ cell-free system, 1H-15N HSQC of synthesized yeast ubiquitin; conditions: for metabolism of glutamic acid to aspartic acid: only glutamic acid labeled with 15N
Description: as §1, §2, §3, §4

SMILES | metabolism of glutamic acid to glutamine ([1]; 0.1 mM L-methionine sulfoximine plus 1 mM aminooxyacetic acid, only glutamic acid labeled with 15N, FIG. 8) | inhibition of the metabolism ([1]; L-methionine sulfoximine 10 μM) | inhibition of the metabolism ([1]; L-methionine sulfoximine 100 μM or more) | amount of GFP synthesized ([2]; L-methionine sulfoximine 20 mM or less in external dialysis solution and reaction solution, FIG. 7) | metabolism of glutamic acid to aspartic acid ([3]; 1 mM aminooxyacetic acid plus 0.1 mM L-methionine sulfoximine, FIG. 8) | HSQC signals observed (selective labeling) ([3]; 1 mM aminooxyacetic acid, only alanine labeled with 15N, FIG. 5A) | HSQC signals observed (selective labeling) ([3]; 1 mM aminooxyacetic acid, only aspartic acid labeled with 15N, FIG. 5B) | metabolism of glutamic acid to aspartic acid ([3]; 1 mM aminooxyacetic acid, FIG. 6) | inhibition of the metabolism ([3]; aminooxyacetic acid 10 μM) | inhibition of the metabolism ([3]; aminooxyacetic acid 100 μM or more) | activity of metabolizing glutamic acid to glutamine ([1]; 1 mM aminooxyacetic acid, only glutamic acid labeled with 15N, FIG. 6) | amount of GFP synthesized ([2]; aminooxyacetic acid 4 mM or less in external dialysis solution and reaction solution, FIG. 4) | synthesized amount of GFP maintained ([2]; aminooxyacetic acid 10 mM, FIG. 4)
CS(=N)(=O)CC[C@H](N)C(=O)O (stereo partly drawn) [L-methionine sulfoximine] | suppressed | two thirds | completely inhibited | not reduced | – | – | – | – | – | – | – | – | –
NOCC(=O)O [aminooxyacetic acid] | – | – | – | – | suppressed | only signal derived from alanine or aspartic acid was observed | only signal derived from alanine or aspartic acid was observed | suppressed | two thirds | completely inhibited | has still remained | not reduced | approximately 70%
